Columns and labels:
Rattus norvegicus [1] = species: Rattus norvegicus; test: animal or person; type: functional; conditions: po
physchem = conditions: octanol/water
Rattus norvegicus [2] = species: Rattus norvegicus; type: functional, Stomach
[3] = molecular target: Prostaglandin G/H synthase 1 (Homo sapiens, UniProt P23219)
Rattus norvegicus [4] = species: Rattus norvegicus; test: animal or person; conditions: po, read-out: Inhibition

Sequence of Prostaglandin G/H synthase 1 (P23219 whole entry): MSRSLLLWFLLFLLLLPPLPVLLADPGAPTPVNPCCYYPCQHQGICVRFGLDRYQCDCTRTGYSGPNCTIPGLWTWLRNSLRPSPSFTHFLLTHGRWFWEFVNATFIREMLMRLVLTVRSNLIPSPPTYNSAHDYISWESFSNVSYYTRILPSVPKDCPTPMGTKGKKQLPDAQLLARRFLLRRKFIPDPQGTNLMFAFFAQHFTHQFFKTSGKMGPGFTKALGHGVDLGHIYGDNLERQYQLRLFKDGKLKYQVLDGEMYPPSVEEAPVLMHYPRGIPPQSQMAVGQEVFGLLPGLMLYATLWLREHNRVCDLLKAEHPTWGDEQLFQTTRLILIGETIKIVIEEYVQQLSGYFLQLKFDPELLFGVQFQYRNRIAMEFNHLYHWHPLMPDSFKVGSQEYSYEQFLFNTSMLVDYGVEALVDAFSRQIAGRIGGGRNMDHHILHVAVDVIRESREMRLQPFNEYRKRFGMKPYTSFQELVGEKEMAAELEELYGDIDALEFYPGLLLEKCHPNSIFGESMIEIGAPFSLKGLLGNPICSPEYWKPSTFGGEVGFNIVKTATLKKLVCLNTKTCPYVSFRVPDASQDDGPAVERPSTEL

NS(=O)(=O)c1ccc(C2=C(c3ccc(F)cc3)CC3(CCC3)C2)cc1
inhibition in vivo at 30 mg/kg (Rattus norvegicus [1]): 37%
logP (physchem): 4.1

NS(=O)(=O)c1ccc(C2=C(c3ccc(F)cc3)CC3(CC3)C2)cc1
inhibition in vivo at 30 mg/kg (Rattus norvegicus [1]): 60%
logP (physchem): 4
Gastric lesions (Rattus norvegicus [2]): 10

CS(=O)(=O)c1ccc(C2=C(c3ccc(F)cc3)CC3(CCCC3)C2)cc1
logP (physchem): 5.4

CS(=O)(=O)c1ccc(C2=C(c3ccc(F)cc3)CC3(CCCCC3)C2)cc1
IC50 [3]: > 100 µM

CC1(C)CC(c2ccc(F)cc2)=C(c2ccc(S(C)(=O)=O)cc2)C1
inhibition in vivo at 30 mg/kg (Rattus norvegicus [4]): 50%

CS(=O)(=O)c1ccc(C2=C(c3ccc(F)cc3)CC3(CCC3)C2)cc1
inhibition in vivo at 30 mg/kg (Rattus norvegicus [1]): 23%
logP (physchem): 4.9

CS(=O)(=O)c1ccc(C2=C(c3ccc(F)cc3)CC3(CC3)C2)cc1
inhibition in vivo at 30 mg/kg (Rattus norvegicus [1]): 38%
IC50 [3]: 5.4 µM
logP (physchem): 4.5

COc1ccc2c(c1)c(CC(=O)O)c(C)n2C(=O)c1ccc(Cl)cc1 [INDOMETHACIN]
inhibition in vivo at 30 mg/kg (Rattus norvegicus [1]): 66%

CS(=O)(=O)Nc1ccc([N+](=O)[O-])cc1OC1CCCCC1 [NS-398]
inhibition in vivo at 30 mg/kg (Rattus norvegicus [1]): 60%

Source: ChEMBL document CHEMBL1151046, “Selective cyclooxygenase inhibitors: Novel 4-spiro 1,2-diarylcyclopentenes are potent and orally active cox-2 inhibitors” (Bioorg Med Chem Lett, 1995)
